Test results: article PMC4474874, “Effect of JAK Inhibitors on Release of CXCL9, CXCL10 and CXCL11 from Human Airway Epithelial Cells” (PLoS ONE, 2015)
Read-outs that look alike come from different tables or passages of the source.

Key:
BEAS-2B cells [1] = assay: Release of CXCL9, CXCL10 and CXCL11 from BEAS-2B cells (ELISA), inhibitors added concomitantly with stimulus; format: cell-based, human
Protocol: Cell-free supernatants were removed 20h post-stimulation and assayed for CXCL9, CXCL10 and CXCL11 using Duoset ELISA kits (R & D Systems Europe, Abingdon, UK) according to the manufacturer’s instructions. The detection limits of these assays are 62pg/ml, 31pg/ml, and 7.8 pg/ml respectively.
It was possible that concomitant addition of stimulus and JAK inhibitors may elicit a different inhibitory profile, therefore to address this, experiments were performed. […] Experiments were then performed to determine the effects of both JAK inhibitors in human primary airway epithelial cells in order to determine whether their ability to suppress CXCR3 chemokine release from BEAS-2B cells was reflective of their efficacy in primary cells.
Media was harvested and the concentrations of CXCL9 (panels a and d), CXCL10 (panels b and e) and CXCL11 (panels c and f) were measured by ELISA. Data are presented as mean±SEM, n = 7–8. (EPS) Click here for additional data file. […]
After this time, media was harvested and the concentrations of CXCR3 chemokines measured by ELISA. Data are presented as mean±SEM, n=4

[2] = system: human primary airway epithelial cells; assay: IL-6 release from IFNγ + TNFα-stimulated human primary airway epithelial cells; format: cell-based; conditions: for IC50: IFNγ + TNFα, n = 7
Protocol: In order to determine whether any of the inhibitory effects of the JAK inhibitors could be attributed to cell death, MTT assays were performed at the end of every experiment. […] In order to address this issue, the levels of IL-6 released from cells stimulated with IFNγ + TNFα were measured.

STAT-1 [3] = assay: STAT-1 phosphorylation in BEAS-2B cells (western blot); format: cell-based, human; conditions: for IC50: n = 4
Protocol: Enhanced chemiluminescence (ECL) reagent and Hybond-ECL nitrocellulose were obtained from GE Healthcare (Little Chalfont, UK). Bis-Tris SDS-PAGE (4–12%) gels and buffers were purchased from Invitrogen Ltd (Paisley, Scotland, UK). Antibodies against phosphorylated and total STAT-1 were purchased from New England Biolabs (Hitchin, UK). Epithelial cells were treated as indicated in six-well plates and lysed in 10 mM Tris-HCl buffer (pH 7.5) containing 150 mM NaCl, 2 mM EDTA, 1 mM sodium orthovanadate, 1% (v/v) Triton X-100, 1 mM phenylmethylsulfonyl fluoride, 10 μg/ml leupeptin, and 10 μg/ml aprotinin) for 30 min on ice. The lysates were then centrifuged at 12,000g for 15 min and protein concentration determined using the BCA protein assay (BioRad, Hemel Hempstead, UK). The proteins within the lysates (20 μg) were resolved with 4–12% Bis-Tris gels and transferred onto nitrocellulose membranes. The membranes were then blocked with 5% (w/v) non-fat milk in TBS containing 0.1% (v/v) Tween 20 for 1 h at room temperature and then incubated with antibodies specific for pSTAT-1 overnight at 4°C. The primary antibody was detected with peroxidase-conjugated secondary antibodies and labelled proteins were detected by ECL.
Having ascertained that JAK inhibitors could suppress the glucocorticosteroid-insensitive release of CXCL9, CXCL10 and CXCL11 from airway epithelial cells, it was important to confirm that this was via inhibition of the JAK-STAT pathway and not an off-target effect of these agents. […] BEAS-2B cells were stimulated with either IFNγ or IFNγ in combination with TNFα and the phosphorylation of STAT-1 was measured by western blotting as reported previously (Fig 4). […] There was no activation of STAT-5A or STAT-5B in this system (data not shown).
Cells were harvested and western blots performed for phosphorylated STAT-1 and total STAT-1 and quantified by densitometry. Data are representative of n = 4 independent experiments (panels a and c) and presented as mean±SEM, n = 4 (panels b and d).

STAT-1 [4] = assay: STAT-1 DNA binding in BEAS-2B cells (TransAM); format: cell-based, human; conditions: IFNγ and IFNγ + TNFα stimulation
Protocol: STAT phosphorylation, nuclear translocation and DNA binding was determined using TransAM assays (Actif Motif, Rixensart, Belgium). Cells were treated with JAK inhibitors for 30 min prior to stimulation for 1h. Nuclear extracts were prepared using the Actif Motif assay reagents. Briefly, the nuclear extracts (10 μg) were incubated in DNA coated plates for 1h. After washing, antibodies supplied with the TransAM kit that were specific for the active forms of STAT1, STAT3, STAT5A and STAT5B were added to the wells and incubated for a further hour. The plates were washed and a secondary HRP-labelled anti-goat Ig antibody was added and the plates incubated for an hour. After washing, the assay was developed using the TMB substrate provided and the reaction stopped using 2N sulphuric acid. The plates were read at 450nm with a reference filter of 610nm. Data were then normalised to non-stimulated cells and calculated as fold change from baseline.
After 1 h, nuclear extracts of the cells were prepared and TransAM assays for STAT-1 (panel a) and STAT-3 (panel b) were performed. Data are presented as fold change from baseline ± SEM; n = 4.

BEAS-2B cells [5] = assay: mRNA expression of CXCL9, CXCL10 and CXCL11 in BEAS-2B cells (Taqman RT-PCR); format: cell-based, human; conditions: BEAS-2b, pretreated 1h, IFNγ or IFNγ with TNFα for 4h
Protocol: Total RNA was extracted from cells and reverse transcribed, as described previously. Gene expression was determined by Taqman real-time PCR on a 7500 Real Time PCR system (Applied Biosystems, Life Technologies Ltd, Paisley, UK) using PCR Master Mix Reagent and ‘assays on demand’ (Applied Biosystems). HPRT1 gene expression was used as the housekeeping gene and data presented as δδCT relative to baseline.
Gene expression of CXCL9 (panels a and b), CXCL10 (panels c and d) and CXCL11 (panels e and f) were quantified by Taqman RT-PCR. Data are presented as fold change form stimulus ± SEM; n = 3 where 1 indicates the level of mRNA induced by IFNγ or IFNγ + TNFα in the absence of inhibitors.

C[C@@H]1CCN(C(=O)N2CCCC2)C[C@@H]1N(C)c1ncnc2[nH]ccc12 [PF956980]
IC50 (BEAS-2B cells [1]; inhibitor concomitant with IFNγ (10 ng/ml) 20h, read-out: IC50, release of CXCL9): 0.3 ± 0.1 µM | IC50 (BEAS-2B cells [1]; inhibitor concomitant with IFNγ (10 ng/ml) 20h, read-out: IC50, release of CXCL10): 1.1 ± 0.4 µM | IC50 (BEAS-2B cells [1]; inhibitor concomitant with IFNγ (10 ng/ml) 20h, read-out: IC50, release of CXCL11): 1.1 ± 0.3 µM | IC50 (BEAS-2B cells [1]; inhibitor concomitant with IFNγ+TNFα (10 ng/ml) 20h, read-out: IC50, release of CXCL9): 1 ± 0.3 µM | IC50 (BEAS-2B cells [1]; inhibitor concomitant with IFNγ+TNFα (10 ng/ml) 20h, read-out: IC50, release of CXCL10): 4 ± 1.3 µM | IC50 [2]: 11.4 ± 9 µM | IC50 (STAT-1 [3]; IFNγ + TNFα stimulation): 0.84 ± 0.21 µM | IC50 (STAT-1 [3]; IFNγ stimulation): 0.94 ± 0.16 µM | effect on STAT-1 DNA binding (STAT-1 [4]): suppressed | effect on expression of CXCL9, CXCL10 and CXCL11 (mRNA) (BEAS-2B cells [5]): suppressed expression of CXCL9, CXCL10 and CXCL11 in a concentration dependent manner

CCc1cc(O)ccc1-c1ccc2c(-c3nc4ccccc4[nH]3)n[nH]c2c1 [PF1367550, 4-(3-(1H-benzo[d]imidazol-2-yl)-1H-indazol-6-yl)-3-ethylphenol]
IC50 (BEAS-2B cells [1]; Homo sapiens, 20 h, inhibitor concomitant with IFNγ (10 ng/ml) 20h, read-out: IC50, release of CXCL9): 0.0103 ± 0.0021 µM | IC50 (BEAS-2B cells [1]; Homo sapiens, 20 h, inhibitor concomitant with IFNγ (10 ng/ml) 20h, read-out: IC50, release of CXCL10): 0.0166 ± 0.0027 µM | IC50 (BEAS-2B cells [1]; Homo sapiens, 20 h, inhibitor concomitant with IFNγ (10 ng/ml) 20h, read-out: IC50, release of CXCL11): 0.016 ± 0.0041 µM | IC50 (BEAS-2B cells [1]; Homo sapiens, 20 h, inhibitor concomitant with IFNγ+TNFα (10 ng/ml) 20h, read-out: IC50, release of CXCL9): 0.0316 ± 0.0134 µM | IC50 (BEAS-2B cells [1]; Homo sapiens, 20 h, inhibitor concomitant with IFNγ+TNFα (10 ng/ml) 20h, read-out: IC50, release of CXCL10): 0.146 ± 0.0326 µM | IC50 (BEAS-2B cells [1]; Homo sapiens, 20 h, inhibitor concomitant with IFNγ+TNFα (10 ng/ml) 20h, read-out: IC50, release of CXCL11): 0.032 ± 0.0087 µM | IC50 for IL-6 release, fold greater than for inhibition of CXCR3 chemokine release [2]: ~ 50 fold | IC50 ([2]; Homo sapiens, Epithelial cell): 0.8 ± 0.2 µM | fold more potent at suppressing STAT-1 phosphorylation compared with PF956980 (STAT-1 [3]): ~ 40 fold | IC50 (STAT-1 [3]; Homo sapiens, IFNγ + TNFα stimulation): 0.032 ± 0.013 µM | IC50 (STAT-1 [3]; Homo sapiens, IFNγ stimulation): 0.024 ± 0.006 µM | effect on STAT-1 DNA binding (STAT-1 [4]): suppressed | effect on expression of CXCL9, CXCL10 and CXCL11 (mRNA) (BEAS-2B cells [5]): completely inhibited
